Measured values: patent publication US8586719B2, “Triterpenes for modulating gene expression and cell membrane, and as antiprotozoal agents” (Pacific Arrow Limited, priority 2005, dated 2013)
In brackets after ≈: the same amount, converted by molar mass. Read-outs that look alike come from different tables or passages of the source.

Assays:
[1] = tested on: Leishmania Major (promastigotes); test: Cell growth of Leishmania parasites by MTT assay; type: cell-based; conditions: for IC50: Leishmania major, read-out: IC50, cytotoxic to Leishmania Major (promastigotes)
Procedure: Method: Leishmania parasites (Leishmania major: MRHO/SU/59/P/LV39) were grown in culture medium in a T75 flask at room temperature. Promastigotes of Leishmania major (approximately 40 million per ml) were used in the experiment. 1.2 ml cell culture was transferred to a well of the 24-wells plate. Saponin Y10 (0.2 ml in medium) with different concentrations (final 6.25-200 ug/ml) was added to culture and cells were grown for 1-5 days at room temperature. At the end of drug-treatment, 150 ul of MTT (5 mg/ml in PBS) was added to each well and incubated for 4 hours. Formazan formed in cells was dissolved with DMSO and the OD at 490 nm was determined by an ELISA reader.

Fibronectin [2] = test: Fibronectin secretion from ES2 cells; type: cell-based, human
Procedure: (§1) Reduction of Fibronectin secretion from ES2 cells after xanifolia-Y treatment. • (Results of F1, F3, F4, F5, F7, F8, F11, F12A, F15, F16, F17) Data in PCT/US2008/002086, 1188-ALA-PCT, filed Feb. 15, 2008 are incorporated herein by reference • (F11) For lung carcinoma cells (H460), at concentration of 20 ug/ml, there are inhibitions of Fibronectin secretion ranged from 20-60%. • (F12A) For bladder carcinoma cells (HTB-9), Xanifolia-Y (10 ug/ml) inhibits 50% of Fibronectin secretion. • (F15) In liver HepG2 cells. 10 ug/ml of xanifolia-Y inhibits 42% secretion of Fibronectin. • (F16) Incubation of brain glioblastoma T98G cells with 10 ug/ml of xanifolia-Y inhibits 27% Fibronectin secretion and with 20 ug/ml Y inhibits 74% Fibronectin secretion. • (F17) For skin SK-MeI-5 cells, the inhibition is 40-57% with 20 ug/ml of Xanifolia-Y.

cancer cells = test: Anticancer activity of alkaline-hydrolysed saponins (cells not stated); type: cell-based; conditions: after removal of acyl groups by alkaline hydrolysis
Fibronectin [3] = test: Fibronectin secretion, lung carcinoma cells (H460); type: cell-based, human; conditions: Lung H460; concentration 10 (label suffix)
Procedure: as §1

Fibronectin [4] = test: Fibronectin secretion, brain glioblastoma T98G cells; type: cell-based, human; conditions: Brain T98G; 10 ug/ml (table: label suffix -10)
Procedure: as §1

Fibronectin [5] = test: Fibronectin secretion, bladder carcinoma cells (HTB-9); type: cell-based, human; conditions: Bladder HTB-9; 10 ug/ml (table: label suffix -10)
Procedure: as §1

Fibronectin [6] = test: Fibronectin secretion, liver HepG2 cells; type: cell-based, human; conditions: 10 ug/ml (table: label suffix -10)
Procedure: as §1

Fibronectin [7] = test: Fibronectin secretion, skin SK-MEL-5 cells; type: cell-based, human; conditions: Skin SK-MEL-5; concentration 10 (label suffix)
Procedure: as §1

[8] = concentration 10 (label suffix; text uses ug/ml)

C/C=C(/C)C(=O)O[C@H]1[C@H](OC(=O)/C(C)=C\C)[C@@]23C(CC1(C)C)[C@]1(CCC4[C@@]5(C)CC[C@H](O)C(C)(C)C5CC[C@@]4(C)[C@]1(C)C[C@H]2O)O[C@@H]3O (stereo partly shown) [ACH-Mb5] was tested, and the IC50 ([1]; MTT assay, promastigotes) was 18 µg/mL (≈ 26.8 µM).

With CC1O[C@@H](OC2[C@H](OC3[C@H](O[C@H]4C(O[C@@H]5OC(CO)[C@H](O)[C@@H](O)C5O)[C@H](O[C@H]5CC[C@@]6(C)C(CC[C@]7(C)C6CC[C@]68O[C@H](O)[C@]9(C6CC(C)(C)[C@@H](O)[C@@H]9O)[C@H](O)C[C@]87C)C5(C)C)OC(C(=O)O)[C@H]4O)OC(CO)[C@H](O)[C@H]3O)OC(C)[C@H](O)[C@@H]2O)C(O)[C@@H](O)[C@H]1O (stereo partly shown) [AKOH-Mb5] the “% inhibition of Fibronectin secretion” value (Fibronectin [2]; concentration 40 (label suffix)) was “No effect”, the anticancer activity (cancer cells) was “lost anticancer activity” and the “cytotoxic to Leishmania Major (promastigotes)” value ([1]; MTT assay, promastigotes) was “not cytotoxic”.

With CC1(C)CC2C3=CCC4[C@@]5(C)CC[C@H](O[C@@H]6OC(C(=O)O)[C@@H](O)[C@@H](O[C@@H]7O[C@@H](CO)C(O)[C@@H]7O)C6O[C@@H]6OC(CO)[C@H](O)[C@@H](O)C6O)C(C)(C)C5CC[C@@]4(C)[C@]3(C)[C@@H](O)[C@@H](O)[C@@]2(CO)[C@@H](O)[C@@H]1O (stereo partly shown) [AKOH-Y] the anticancer activity (cancer cells) was “lost anticancer activity” and the “cytotoxic to Leishmania Major (promastigotes)” value ([1]; MTT assay, promastigotes) was “not cytotoxic”.

C/C=C(/C)C(=O)O[C@H]1[C@H](OC(=O)/C(C)=C\C)[C@@]2(CO)C(CC1(C)C)C1=CCC3[C@@]4(C)CC[C@H](O[C@@H]5OC(C(=O)O)[C@@H](O)C(O[C@@H]6OC[C@@H](O)C(O)C6O)C5O[C@@H]5OC(CO)[C@H](O)C(O)C5O)C(C)(C)C4CC[C@@]3(C)[C@]1(C)C[C@H]2O (stereo partly drawn) [Ba1, 3-O-[β-D-galactopyranosyl(1→2)]-β-D-xylopyranosyl(1→3)-β-D-glucuronopyranosyl-21-O-angeloyl, 22-O-angeloyl-3β, 15α, 21β, 22α, 28-pentahydroxyolean-12-ene] was tested, and the “% inhibition of Fibronectin secretion” value (Fibronectin [2]; [8]) was 30%, the “% inhibition of Fibronectin secretion” value (Fibronectin [3]) was 19% and the “% inhibition of Fibronectin secretion” value (Fibronectin [4]) was 26%. The “% inhibition of Fibronectin secretion” value (Fibronectin [5]) was 25%, the “% inhibition of Fibronectin secretion” value (Fibronectin [6]) was 33% and the “% inhibition of Fibronectin secretion” value (Fibronectin [7]) was 10%. For the same compound, the “IC50, cytotoxic to Leishmania Major (promastigotes)” value (from here on “IC50, cytotoxic to Leishmania Major”) ([1]; MTT assay, promastigotes) was 15 µg/mL (≈ 13.3 µM).

CC=C(C)C(=O)OC1C(OC(=O)c2ccccc2)C(C)(C)CC2C3=CCC4C5(C)CCC(OC6OC(C(=O)OC)C(O)C(OC7OCC(O)C(O)C7O)C6OC6OC(CO)C(O)C(O)C6O)C(C)(C)C5CCC4(C)C3(C)CC(O)C21CO (stereo not shown) [Ba4] was tested, and the “% inhibition of Fibronectin secretion” value (Fibronectin [2]; [8]) was 28%, the “% inhibition of Fibronectin secretion” value (Fibronectin [3]) was 18% and the “% inhibition of Fibronectin secretion” value (Fibronectin [4]) was 24%. For the same compound, the “% inhibition of Fibronectin secretion” value (Fibronectin [5]) was 30%, the “% inhibition of Fibronectin secretion” value (Fibronectin [6]) was 28% and the “% inhibition of Fibronectin secretion” value (Fibronectin [7]) was 10%.

In the case of CC=C(C)C(=O)OC1C(OC(=O)C(C)=CC)C23C(O)CC4(C)C5(C)CCC6C(C)(C)C(OC7OC(C(=O)O)C(O)C(OC8OC(CO)C(O)C(O)C8OC8OC(C)C(O)C(O)C8OC8OC(C)C(O)C(O)C8O)C7OC7OC(CO)C(O)C(O)C7O)CCC6(C)C5CCC4(OC2O)C3CC1(C)C (stereo not shown) [Mb5], the “% inhibition of Fibronectin secretion” value (Fibronectin [2]; [8]) is reported as 35%, the “% inhibition of Fibronectin secretion” value (Fibronectin [3]) is reported as 25% and the “% inhibition of Fibronectin secretion” value (Fibronectin [4]) is reported as 33%. For the same compound, the “% inhibition of Fibronectin secretion” value (Fibronectin [5]) was 28%, the “% inhibition of Fibronectin secretion” value (Fibronectin [6]) was 35% and the “% inhibition of Fibronectin secretion” value (Fibronectin [7]) was 15%. For the same compound, the “IC50, cytotoxic to Leishmania Major” value ([1]; MTT assay, promastigotes) was 15 µg/mL (≈ 10.2 µM).

In the case of C/C=C(/C)C(=O)O[C@H]1[C@H](OC(C)=O)C(C)(C)CC2C3=CCC4[C@@]5(C)CC[C@H](O[C@@H]6OC(C(=O)OCCCC)[C@@H](O)C(O[C@@H]7O[C@@H](CO)C(O)C7O)C6O[C@@H]6OC(CO)[C@H](O)C(O)C6O)C(C)(C)C5CC[C@@]4(C)[C@]3(C)C[C@@H](O)[C@]21CO (stereo partly drawn) [X, 3-O-{[β-D-galactopyranosyl(1→2)]-[α-L-arabinofuranosyl(1→3)]-β-D-glucuronopyranosidebutyl ester}-21-O-acetyl-22-O-angeloyl-3β,16α, 21β,22α, 28-pentahydroxyolean-12-ene], the “% inhibition of Fibronectin secretion” value (Fibronectin [2]; [8]) is reported as 39%.

With C/C=C(/C)C(=O)O[C@H]1[C@H](OC(=O)C(C)C)[C@@]2(CO)C(CC1(C)C)C1=CCC3[C@@]4(C)CC[C@H](O[C@@H]5OC(C(=O)O)[C@@H](O)C(O[C@@H]6O[C@@H](CO)C(O)C6O)C5O[C@@H]5OC(CO)[C@H](O)C(O)C5O)C(C)(C)C4CC[C@@]3(C)[C@]1(C)[C@@H](O)[C@H]2O (stereo partly drawn) [Y0, 3-O-[β-D-galactopyranosyl(1→2)]-α-L-arabinofuranosyl(1→3)-β-D-glucuronopyranosyl-21-O-angeloyl, 22-O-(2-methylpropanoyl)-3β, 15α, 16α, 21β, 22α, 28-hexahydroxyolean-12-ene] the “% inhibition of Fibronectin secretion” value (Fibronectin [2]; [8]) was 34% and the “IC50, cytotoxic to Leishmania Major” value ([1]; MTT assay, promastigotes) was 25 µg/mL (≈ 22.1 µM).

Compound C/C=C(/C)C(=O)O[C@@H]1C(O)[C@H](O[C@H]2[C@H](OC(C)=O)[C@@]3(CO)C(CC2(C)C)C2=CCC4[C@@]5(C)CC[C@H](O[C@@H]6OC(C(=O)O)[C@@H](O)[C@@H](O[C@@H]7O[C@@H](CO)[C@@H](O)C7O)C6O[C@@H]6OC(CO)[C@H](O)[C@@H](O)C6O)C(C)(C)C5CC[C@@]4(C)[C@]2(C)C[C@H]3O)OC(C)[C@@H]1OC(=O)/C(C)=C\C (stereo partly drawn) [Y1, 3-O-[β-D-galactopyranosyl (1→2)]-α-L-arabinofuranosyl(1→3)-β-D-glucuronopyranosyl-21-O-(3,4-diangeloyl)-α-L-rhamnophyranosyl-22-O-acetyl-3β,16α, 21β, 22α, 28-pentahydroxyolean-12-ene] has an IC50 [1] of 23 µg/mL (≈ 17.5 µM).

For C/C=C(/C)C(=O)O[C@H]1[C@H](OC(=O)/C(C)=C\C)[C@@]2(CO)C(CC1(C)C)C1=CCC3[C@@]4(C)CC[C@H](O[C@@H]5OC(C(=O)O)[C@@H](O)C(O)C5O[C@@H]5OC(CO)[C@H](O)C(O)C5O)C(C)(C)C4CC[C@@]3(C)[C@]1(C)[C@@H](O)[C@H]2O (stereo partly shown) [Y5], the “IC50, cytotoxic to Leishmania Major” value ([1]; MTT assay, promastigotes) was 16 µg/mL (≈ 15.9 µM).

In the case of C/C=C(/C)C(=O)O[C@H]1[C@H](O)[C@@]2(COC(=O)C(C)CC)C(CC1(C)C)C1=CCC3[C@@]4(C)CC[C@H](O[C@@H]5OC(C(=O)O)[C@@H](O)C(O[C@@H]6O[C@@H](CO)C(O)C6O)C5O[C@@H]5OC(CO)[C@H](O)C(O)C5O)C(C)(C)C4CC[C@@]3(C)[C@]1(C)[C@@H](O)[C@H]2O (stereo partly drawn) [Y7, 3-O-[β-D-galactopyranosyl-(1→2)]-α-L-arabinofuranosyl-(1→3)-β-D-glucuronopyranosyl-21-O-angeloyl-28-O-2-methylbutanoyl-3β, 15α, 16α, 21β, 22α, 28-hexahydroxyolean-12-ene], the “% inhibition of Fibronectin secretion” value (Fibronectin [2]; [8]) is reported as 34% and the “IC50, cytotoxic to Leishmania Major” value ([1]; MTT assay, promastigotes) is reported as 18 µg/mL (≈ 15.7 µM).

With C/C=C(/C)C(=O)O[C@H]1[C@H](OC(=O)/C(C)=C/C)[C@@]2(CO)C(CC1(C)C)C1=CCC3[C@@]4(C)CC[C@H](O[C@@H]5OC(C(=O)O)[C@@H](O)C(O[C@@H]6OC[C@@H](O)C(O)C6O)C5O[C@@H]5OC(CO)[C@H](O)C(O)C5O)C(C)(C)C4CC[C@@]3(C)[C@]1(C)C[C@H]2O (stereo partly drawn) [Z12, 3-O-[β-D-galactopyranosyl(1→2)]-β-D-xylopyranosyl(1→3)-β-D-glucuronopyranosyl-21-O-angeloyl, 22-O-tigloyl-3β, 16α, 21β, 22α, 28-pentahydroxyolean-12-ene] the “IC50, cytotoxic to Leishmania Major” value ([1]; MTT assay, promastigotes) was 23 µg/mL (≈ 20.4 µM).
